Experimental data: publication PMC6213900, “Design, Synthesis, and Cytotoxic Analysis of Novel Hederagenin–Pyrazine Derivatives Based on Partial Least Squares Discriminant Analysis” (International Journal of Molecular Sciences, 2018)

Legend:
[1] = test system: MCF-7 (human mammary cancer); test: MTT cytotoxicity assay, MCF-7; type: cell-based; conditions: Homo sapiens, MCF7, 72 h treatment, read-out: Half Maximal Inhibitory Concentration (IC50) MCF-7
Method: (§1) The cytotoxicity of hederagenin derivatives in vitro was evaluated on three tumor cell lines (A549: human non-small-cell lung cancer; MCF-7: human mammary cancer; HepG2: human hepatocellular carcinoma) using the 3-(4,5-dimethylthiazol-2-yl)-2,5-diphenyltetrazolium bromide (MTT) assay. In addition, their toxicity evaluations were tested on H9c2 (murine heart myoblast) and MDCK (Madin–Darby canine kidney) cells. MCF-7, A549, HepG2, H9c2, and MDCK cells were obtained from the Chinese Academy of Medical Sciences and Peking Union Medical College. All of the cell lines were maintained in Dulbecco’s modified Eagle medium (DMEM) supplemented with 1% (v/v) penicillin/streptomycin and 10% (v/v) fetal bovine serum (FBS; Thermo Technologies, New York, NY, USA) under a humidified atmosphere containing 5% CO2 at 37 °C. The stock solutions of He derivatives were dissolved in dimethyl sulfoxide (DMSO; Sigma, St. Louis, MO, USA) and added at various concentrations to the cell culture. Cellular morphologies were observed using an inverted fluorescence microscope (Olympus IX71, Tokyo, Japan), a plate reader (BIORAD 550 spectrophotometer, Bio-rad Life Science Development Ltd., Beijing, China), and a Canton 2 flow cytometer (BD, New York, NY, USA). The antitumor activity of these compounds were evaluated on MCF-7, A549, HepG2, MDCK, and H9c2 cell lines using the MTT assay. Cells at a density of 3 × 10^3 cells/well were plated in a 96-multiwell plate in DMEM containing 10% FBS for 24 h at 37 °C with 5% CO2. Then, cells were treated for 72 h with the required concentrations (3.125, 6.25, 12.5, 25, or 50 μM) of the compounds and reference drugs (He and DDP) dissolved with the vehicle DMSO. After that, the culture substrate was replaced with 200 μL of DMEM containing 20 μL of MTT solution at 5 mg/mL and incubated for 4 h. The supernatant was removed and the dissolved formazans precipitated with 120 μL of DMSO. Wells without drugs were used as blanks. A plate reader was used to determine the absorbance at 490 nm. The above steps were repeated three times. The IC50 values were defined as the concentration of the compound which gave 50% growth inhibition, and they were calculated using Graph Pad Prism 5. The inhibition rate was calculated using the following formula, where OD is the optical density:% inhibition = 1 − (Sample group OD/Control group OD) × 100%. (1)

[2] = test system: HepG2 (human hepatocellular carcinoma); test: MTT cytotoxicity assay, HepG2; type: cell-based; conditions: Homo sapiens, HepG2; MTT, 72 h treatment; read-out: Half Maximal Inhibitory Concentration (IC50) HepG2
Method: as §1

[3] = test system: MDCK (Madin–Darby canine kidney) cells; test: MTT toxicity evaluation, MDCK; type: cell-based; conditions: Canis lupus familiaris, MDCK, 72 h treatment, non-tumor cells, read-out: Half Maximal Inhibitory Concentration (IC50) MDCK
Method: as §1

[4] = test system: H9c2 (murine heart myoblast); test: MTT toxicity evaluation, H9c2; type: cell-based; conditions: H9c2, 72 h treatment, non-tumor cells, read-out: Half Maximal Inhibitory Concentration (IC50) H9c2
Method: as §1

[5] = test system: A549 (human non-small-cell lung cancer); test: MTT cytotoxicity assay, A549; type: cell-based; conditions: Homo sapiens, A549, 72 h treatment, read-out: Half Maximal Inhibitory Concentration (IC50) A549
Method: as §1

| SMILES | melting point [°C] | IC50 [1] [µM] | IC50 [2] [µM] | IC50 [3] [µM] | IC50 [4] [µM] | IC50 [5] [µM] |
| --- | --- | --- | --- | --- | --- | --- |
| Cc1nc(C)c(C(=O)OCCOC(=O)[C@]23CCC(C)(C)CC2C2=CCC4[C@@]5(C)CC[C@H](O)[C@@](C)(CO)C5CC[C@@]4(C)[C@]2(C)CC3)nc1C (stereo partly drawn) [Compound 13, 2-(((4aS,6aS,6bR,9R,10S,12aR)-10-Hydroxy-9-(hydroxymethyl)-2,2,6a,6b,9,12a-hexamethyl-1,2,3,4,4a,5,6,6a,6b,7,8,8a,9,10,11,12,12a,12b,13,14b-icosahydropicene-4a-carbonyl)oxy)ethyl-3,5,6-trimethylpyrazine-2-carboxylate] | 150.6 | 18.03 ± 0.18 | 13.2 ± 0.29 | 23.22 ± 0.01 | 10.5 ± 0.61 | 8.15 ± 0.17 |
| Cc1ncc(C(=O)OC[C@@]2(C)C3CC[C@]4(C)C(CC=C5C6CC(C)(C)CC[C@]6(C(=O)OCCCCCl)CC[C@]54C)[C@@]3(C)CC[C@@H]2O)nc1C (stereo partly drawn) [Compound 25, ((3S,4R,6aR,6bS,8aS,14bR)-8a-((4-Chlorobutoxy)carbonyl)-3-hydroxy-4,6a,6b,11,11,14b-hexamethyl-1,2,3,4,4a,5,6,6a,6b,7,8,8a,9,10,11,12,12a,14,14a,14b-icosahydropicen-4-yl)methyl 5,6-dimethylpyrazine-2-carboxylate] | 123.6 | 15.6 ± 1.41 | 6.42 ± 0.24 | > 30 | > 30 | > 30 |
